Experimental data as given in patent US6399622B1, “Method for diagnosing and alleviating the symptoms of chronic fatigue syndrome” (priority 1997, dated 2002).
Read-outs that look alike come from different tables or passages of the source.

Assays:
[1] = test system: human cytomegalovirus (nonstructural gene products p52 and CM2); assay: Example 4: Copalis antibody titers and fatigue after ganciclovir in HCMV CFS patients; assay type: in vivo
From the text: This Copalis® method to CM2 and p52 measures IgM antibodies to HCMV non-structural gene products. The non-structural gene products are UL44, UL57. These gene products have been produced in E-coli. The UL44 and UL57 refer to the open reading frames (ORF) of the human cytomegalovirus genome. The UL44 has the function of a polymerase processivity factor known as p52. The UL57 is the second gene product which may be measured by the Copalis® method and its function is as a single-stranded (ss) DNA binding protein CM2. These are nonstructural gene products which are extruded from a cell with incomplete human cytomegalovirus multiplication. The Copalis® method measures antibodies to these two gene products with the purified antigens produced in E-coli.
The Copalis® CMV Mutliplex assay is a homogenous test for the simultaneous determination of acute infection stages or immune status to Cytomegalovirus using coupled particle light scattering. Sized microparticles, coated with one of three antigens (p52, CM2, and CMV viral particle (VP)) are dried in the reaction cup. Early phase IgM antibodies are detected by both the CM2 and the p52 antigens. Antibody response to the CM2 antigen but not to the p52 antigen continues through the convalescent stage of acute infection. Antibodies to the VP may appear during acute infection but shall persist during life. Reactivity just (sucrose-density purified tissue culture produced complete HCMV cytomegalovirus) to the VP is characteristic of prior infection (indicative of immune status). Antibody detection, made by the Copalis® Immunoassay System, is reported qualitatively for the IgM analytes and semi-quantitatively for the total analyte.
The Copalis® CMVplex Antibody Assay is based on the principle of antibody dependent particle aggregation as measured by the amount of light scattered. A typical antibody reactivity pattern (IgM and/or IgG) in the patient sample allows diagnosis of the infection as seronegative, acute or past infections. The CMVplex Test Cup has polystyrene microparticles of three sizes each coated with different specific antigens dried in the bottom. The Test Cup is reconstituted with reaction buffer by the instrument. The sample is then transferred into the reaction well and the mixture is agitated for 10 minutes. Upon completion of the agitation, the reaction mixture is transferred to the optical system for analysis.
The level of aggregation is determined by discrimination of particle sizes and unreacted particles (monomers) as detected by the optical system. The quantity of assay particles remaining as monomers is compared to that of an unreacted baseline negative calibrator. A ratio is established between the counts of the two monomer particles. This ratio is reported as the Copalis® Test Result (CTR). The CTR is then converted into a numerical unit, Copalis® Index (CI), which determines the cutoff thresholds for each marker. Interpretation of results is based upon the CI. Results for the IgG marker (VP) are reported semi-quantitatively and qualitatively for the IgM markers (p52 and CM2).
Results of Copalis® antibody testing in patients with the U.S. CDC-Chronic Fatigue Syndrome and various other patients with severe onset of […] fatigue. Group 1) Eight patients were studied with the chronic fatigue syndrome. They are six women and […] with ages ranging from 32 through 48. They had IgG antibodies to human cytomegalovirus. […] They would be evaluated as having past infection. […]

[2] = in vivo, po, 1000 mg; cited from earlier work
HCMV = assay type: in vivo, human; conditions: for mean energy index: six months later
Procedure: HCMV-Isolated CFS Patients-Test of Antiviral Treatment. A study was conducted to assess the possible efficacy of ganciclovir treatment on a subset of CFS patients with (1) high HCMV IgG ELISA antibody titers; (2) minimal/no serologic evidence of concurrent EBV multiplication; and (3) oscillating ECG abnormalities at Holter monitoring. Patients. From March, 1993, through June, 1994, 3 men and 15 women with the mean age of 39.7 plus or minus 7.7 years, with CFS (as defined by the USA, Centers for Diseases Control criteria), were recruited from a single infectious diseases referral center in Birmingham, Mich. Approximately 50 patients with chronic fatigue syndrome were screened for inclusion in this study. […] In these 18 CFS patients, baseline standard 12 lead ECG, 2-D echocardiogram, rest-stress myocardial perfusion (thallium 201 or Tc-99 cardiolite) and rest-stress multiple […] acquisitions (MUGA) studies as well as coronary angiography excluded coronary artery disease. HCMV ELISA and HCMV ELISA IgG titers, as well as EBV capsid antigen (VCA), ELISA IgM and EBV total early antigens (EA) immunofluorescent antibody titers were assayed. Additionally, buffy coats, urine and myocardial biopsies were tested for infectious HCMV. […] Holter monitoring, MUGA studies and endomyocardial biopsies in these patients were done. Holter monitors, MUGA studies and endomyocardial biopsies were read blindly without knowledge of the patient. Also readings were repeated by at least one, and often several, other physician readers. A patient's 24-hour Holter monitor was considered positive if T-waves became intermittently inverted or flat. Labile T-wave abnormalities at Holter monitoring were present in each CFS patient. In addition to the Holter monitoring, at each outpatient visit, a subjective evaluation of the patient's functional status was recorded using the energy index (EI) as previously described. Infusions of Ganciclovir. After placement of a peripherally inserted central catheter (PICC) or a groshong catheter, ganciclovir was given intravenously in a dose of 5 mg. per kg. at 12-hour intervals for 30 days. Patients were seen once a week by the same physician and complete blood counts, SMA values and urinalysis were conducted. […] They were advised to avoid exercise, fatigue and alcohol and engage in regular sleeping patterns. Statistical Methods. Eighteen patients, 3 men and 15 women, all with CFS, with a mean age of 39.7 ranging from 29 to 51 years, were evaluated. Statistical significance between patients meeting the criteria for the HCMV subset and other patients with CFS were evaluated using tests of homogeneity of chi-square analysis and the two-tailed Fisher's exact test for bivariate analysis of dichotomous data.

herpes viruses = conditions: cited from earlier work
[3] = test system: Epstein-Barr virus persistent infection; assay: Example 2: valacyclovir treatment of EBV-isolated CFS patients; assay type: in vivo, human
From the text: EBV-Isolated CFS Patients—Test of Antiviral Treatment. […] EBV active infection was documented by EBV VCA IgM antibodies and/or EBV EA elevated antibody titers. All of these patients had their energy levels reduced by 50% or more and were partially or entirely non-functional, unable to work or maintain a household. These ten patients had no diseases or complicating conditions which could have accounted for their chronic fatigue syndrome symptoms and they had no prior psychiatric diseases.
Each patient's functional status was recorded as a statistically validated energy index (EI). At each out-patient visit, subjective evaluation of the patient's functional status was recorded using this energy index. The energy index records the average subjective vitality of the patient in the immediate 14 days prior to this specific out-patient visit. When minor illnesses such as the common cold complicated a visit, evaluation of the EI for a patient was delayed until the intercurrent problem receded.
Prior to the initiation of the antiviral treatment and following approximately six months of treatment, objective evaluations of the ability to work and the energy index of each of the ten patients was analyzed.
Pursuant to the energy index, a patient with a 0 energy index (EI) is bedridden. With an energy index of 1 or 2, any activity by the patient leads to overwhelming, incapacitating fatigue. Such patients are generally light-headed, unable to think clearly, and concentration is difficult for any extended period of time (over 60 minutes). Left-sided chest aches, palpitations, sore throats and feverishness are frequent. These patients may be out of bed for intermittent, brief periods of the day.
Patients with an energy index between 3 and 5 can, with great effort, be out of bed for several hours each day doing non-physical activities. […] These patients express variable light-headedness, inability to think clearly or read normally. Left-sided chest aches, palpitations, sore throats and feverishness occur often. Patients within this energy range cannot perform a 40 hour sedentary job or maintain the duties of a homemaker including such activities as cooking and cleaning. In general, CFS patients have an energy index of 5 or less.
Patients with an energy index between 6 and 9 can assume normal activities and maintain a 40 hour work week and, with pacing, maintain a household. […] These patients can do light physical work or exercise in moderation without fatigue.
Patients with an energy index of 10 have normal energy levels, stamina and a sense of well-being. Light-headedness, difficulties in concentrating and reading ability and chest aches, palpitations, sore throats and feverishness are absent.
During the initial and final clinical visits, each CFS patient was studied to determine the IgM antibodies to the EBV viral capsid antigen (VCA), total early antigens (EA), and enzyme immunoassays (ELISA) to HCMV IgM and HCMV ELISA IgG titers. An IgM EBV VCA antibody titer indicates infectious lytic EBV multiplication within the most recent 3 month period. During the EBV infectious lytic cycle, antigen is expressed which can be divided into a diffuse (EAD) complex and a cytoplasmic restricted EAR complex (EAR). As a result, each patient's EAD was assayed. The presence of EBV EA antibody indicates current EBV multiplication. Likewise, an elevated […] IgM antibody indicates recent EBV or HCMV multiplication, respectively. The EBV VCA antibody IgM titers were done by the ELISA method. As a control group, similar serum antibody titers were measured in 20 non-CFS individuals. In the non-CFS control group, the mean HCMV IgG titer was 240.
Dosage. Each of the patients was administered an oral dose of valacyclovir at 10 mg/kg by mouth every six hours.
Demographics. There were nine women and one person. Their ages ranged from 20-67 years. Their mean age was 43.3 years. […]

[4] = eight CFS patients, intravenous followed by oral ganciclovir

Compound: Nc1nc2c(ncn2COC(CO)CO)c(=O)[nH]1 [ganciclovir, 9-(1,3-dihydroxy-2-propoxymethyl) guanine]
- antibodies to nonstructural gene products p52 and CM2 (Copalis) [1, 4]: became markedly lower and disappeared
- fatigue [1, 4]: remarkably lessened
- clinical outcome ([1]; person positive only by p52, intravenous followed by oral ganciclovir): improved remarkably
- cardiac function ([1]; person with congestive heart failure and diabetes mellitus, intravenous): improved
- CM2 antibodies (Copalis) ([1]; two CFS patients with high CM2, no elevated p52, intravenous followed by oral ganciclovir): lessened or disappeared
- bioavailability (of ganciclovir) [2]: 5.6%
- mean energy index (HCMV; Group A (13 improved patients), start mean 3): 7
- patients with improved MUGA test results (lesser tardokinesis, hypokinesis or left ventricular dilatation) (HCMV; Group A, after treatment): 3 patients
- patients with previously abnormal myocardial dynamics reverted to normal (MUGA) (HCMV; Group A, after treatment): 3 patients
- patients who resumed normal pre-CFS activity levels (HCMV; Group B): none
- mean energy index (HCMV; Group B (5 not improved patients), start mean 2): 4
- fatigue (HCMV; case study): disappeared
- maximal cardiac ejection fraction (HCMV; case study, a further five months later, from 54%): 68%
- resting ejection fraction (stress MUGA) (HCMV; case study, five months after 30 days i.v. treatment, before 40%): 54%
- increase of resting ejection fraction (HCMV; case study, from 40% to 54%): 14%
- serum creatinine (HCMV; human, in vivo): transient increase in serum creatinine
- adverse events (HCMV; human, in vivo, iv): no adverse events or symptoms attributable to ganciclovir
- patients improved (HCMV; of 18 CFS patients, 5 mg per kg i.v. at 12-hour intervals for 30 days): 13 patients
- MUGA study at follow up (HCMV; one Group B patient with initial normal MUGA, 6 months after treatment): showed septal hypokinesis
- clinical response (HCMV; small preliminary subset of CFS patients with HCMV infection, no concurrent EBV multiplication): salutary response
- activity level after antiviral treatment (HCMV; the 13 patients in Group A): resumed their normal pre-CFS activity levels

Compound: O=c1[nH]c(=O)n([C@@H]2O[C@H](CO)[C@@H](O)[C@@H]2O)cc1/C=C/Br [bromovinyl arabinosyl uracil]
- inhibition of herpes viruses (herpes viruses; herpes simplex virus Type 1, Epstein-Barr virus and VZV): significant inhibition

Compound: O=C(O)P(=O)(O)O [Foscarnet sodium, trisodium phosphonoformate]
- activity against herpes viruses (herpes viruses; in vitro and in vivo): potent in vitro and in vivo activity

Compound: CC(C)[C@H](N)C(=O)OCCOCn1cnc2c(=O)[nH]c(N)nc21 [valacyclovir]
- mean energy index (EI) at completion of therapy ([3]; 10 EBV CFS patients, 10 mg/kg by mouth every six hours, about six months, pre-therapy mean EI 4.7): 7.5
- median energy index (EI) at completion of therapy ([3]; 10 EBV CFS patients, about six months of treatment): 7
- range of energy index (EI) at completion of therapy ([3]; 10 EBV CFS patients, pre-therapy range 3.5 to 5.5): 6-10
- patients with light-headedness, unsteadiness, inability to think well at completion of the trial ([3]; at beginning 9 out of 10): one of ten
- patients with palpitations at completion of the trial ([3]; at beginning five out of ten): three out of ten
- patients with positive EA antibody titers (≧10) at completion of the trial ([3]; at beginning seven out of ten): eight out of ten
- patients with EBV VCA IgM positive titers at completion of the trial ([3]; before trial five out of ten): two out of ten
- ability to work / activity level following treatment ([3]; each of the ten patients, after approximately six months): able to fully engage in his/her activity level at work or home
- patients with chest pain at completion of the trial ([3]; prior to therapy five out of ten): one out of ten

Compound: CC(C)[C@H](N)C(=O)OCC(CO)OCn1cnc2c(=O)nc(N)[nH]c21 (stereo partly drawn) [valganciclovir]
- bioavailability (of ganciclovir) [2]: 60.9%
